In patent US8399381B2, “Condensed heterocyclic sulfonyl urea compound, a herbicide containing the same, and a method for weed control using the same” (Sumitomo Chemical Company, Limited, priority 2002, dated 2013):

Tests used:
[1] = system: sulfonylurea herbicide-resistant Scirpus juncoides var. ohwianus; assay: Paddy pot weeding test, flooded, two-leaf stage (Test Example 1); format: in vivo; conditions: 1 g/are, three weeks after treatment, resistant biotype, Iwamisawa City, Hokkaido
From the text: (§1) A 5 cm×5 cm Jiffy Pot™ was charged with paddy soil, then water was introduced into each pot, seeds of sulfonylurea herbicide-sensitive Scirpus juncoides var. ohwianus, sulfonylurea herbicide-sensitive Lindernia procumbens (Krock.) Philcox, sulfonylurea herbicide-sensitive Lindernia dubia subsp. major Pennell, sulfonylurea herbicide-resistant Scirpus juncoides var. ohwianus, sulfonylurea herbicide-resistant Lindernia procumbens (Krock.) Philcox and sulfonylurea herbicide-resistant Lindernia dubia subsp. major Pennell were sowed therein and cultivated for a prescribed period under flooding conditions. When the plants reached the two-leave stage, the prescribed number of Jiffy Pots where the plants had been grown were transferred to a 150-cm^2 rectangular plastic pot, and water was introduced to a height of 3 cm, and a chemical diluent containing a compound was applied into the pot in an amount of 1 g/are. The chemical diluent was prepared by dissolving 1.5 g compound in 2 L of N,N-dimethylformamide (DMF) containing, 2% (W/V) surfactant Tween™ 20 and then diluting it with water to adjust the total volume to 10 L.

[2] = system: sulfonylurea herbicide-sensitive Lindernia dubia subsp. major Pennell; assay: as above; format: in vivo; conditions: 1 g/are, three weeks after treatment, sensitive biotype, Makabe Town, Ibaraki Pref.
From the text: as §1

[3] = system: sulfonylurea herbicide-resistant Lindernia dubia subsp. major Pennell; assay: as above; format: in vivo; conditions: 1 g/are, three weeks after treatment, resistant biotype, Kawanishi Town, Yamagata Pref.
From the text: as §1

[4] = system: sulfonylurea herbicide-resistant Lindernia procumbens (Krock.) Philcox; assay: as above; format: in vivo; conditions: 1 g/are, three weeks after treatment, resistant biotype, Tajiri Town, Miyagi Pref.
From the text: as §1

[5] = system: sulfonylurea herbicide-sensitive Scirpus juncoides var. ohwianus; assay: as above; format: in vivo; conditions: 1 g/are, three weeks after treatment, sensitive biotype, Kyoto Pref.
From the text: as §1

[6] = system: sulfonylurea herbicide-sensitive Lindernia procumbens (Krock.) Philcox; assay: as above; format: in vivo; conditions: 1 g/are, three weeks after treatment, sensitive biotype, Kyoto Pref.
From the text: as §1

CCc1nc2ccc(N(C)C)nn2c1NC(=O)NS(=O)(=O)c1nc(OC)cc(OC)n1 [Compound No. 4]
R Scirpus juncoides var. ohwianus (effect index) [1]: 5 (excellent 81 to 100) | S Lindernia dubia subsp. major Pennell (effect index) [2]: 5 (excellent 81 to 100) | R Lindernia dubia subsp. major Pennell (effect index) [3]: 5 (excellent 81 to 100) | R Lindernia procumbens (Krock.) Philcox (effect index) [4]: 3 (moderate 41 to 60) | S Scirpus juncoides var. ohwianus (effect index) [5]: 5 (excellent 81 to 100) | S Lindernia procumbens (Krock.) Philcox (effect index) [6]: 5 (excellent 81 to 100) | melting point: 174 to 176 °C

COc1cc(OC)nc(S(=O)(=O)NC(=O)Nc2c(S(C)(=O)=O)nn3ccsc23)n1 [Compound No. 35]
R Scirpus juncoides var. ohwianus (effect index) [1]: 5 (excellent 81 to 100) | S Lindernia dubia subsp. major Pennell (effect index) [2]: 5 (excellent 81 to 100) | R Lindernia dubia subsp. major Pennell (effect index) [3]: 5 (excellent 81 to 100) | R Lindernia procumbens (Krock.) Philcox (effect index) [4]: 3 (moderate 41 to 60) | S Scirpus juncoides var. ohwianus (effect index) [5]: 5 (excellent 81 to 100) | S Lindernia procumbens (Krock.) Philcox (effect index) [6]: 5 (excellent 81 to 100) | melting point: 190 to 201 °C

CCSc1ccc2nc(CC)c(S(=O)(=O)NC(=O)Nc3nc(OC)cc(OC)n3)n2n1 [Compound No. 7, 1-(4,6-dimethoxypyrimidin-2-yl)-3-(2-ethyl-6-ethylthioimidazo[1,2-b]pyridazin-3-ylsulfonyl)urea]
R Scirpus juncoides var. ohwianus (effect index) [1]: 5 (excellent 81 to 100) | S Lindernia dubia subsp. major Pennell (effect index) [2]: 5 (excellent 81 to 100) | R Lindernia dubia subsp. major Pennell (effect index) [3]: 4 (high 61 to 80) | R Lindernia procumbens (Krock.) Philcox (effect index) [4]: 3 (moderate 41 to 60) | S Scirpus juncoides var. ohwianus (effect index) [5]: 5 (excellent 81 to 100) | S Lindernia procumbens (Krock.) Philcox (effect index) [6]: 5 (excellent 81 to 100) | melting point: 160 to 165 °C (dec.)

CCOc1ccc2nc(C)c(NC(=O)NS(=O)(=O)c3nc(OC)cc(OC)n3)n2n1 [Compound No. 16]
R Scirpus juncoides var. ohwianus (effect index) [1]: 5 (excellent 81 to 100) | S Lindernia dubia subsp. major Pennell (effect index) [2]: 5 (excellent 81 to 100) | R Lindernia dubia subsp. major Pennell (effect index) [3]: 5 (excellent 81 to 100) | R Lindernia procumbens (Krock.) Philcox (effect index) [4]: 4 (high 61 to 80) | S Scirpus juncoides var. ohwianus (effect index) [5]: 5 (excellent 81 to 100) | S Lindernia procumbens (Krock.) Philcox (effect index) [6]: 5 (excellent 81 to 100) | melting point: 168 to 170 °C (dec.)

CCSc1ccc2nc(C)c(NC(=O)NS(=O)(=O)c3nc(OC)cc(OC)n3)n2n1 [Compound No. 18]
R Scirpus juncoides var. ohwianus (effect index) [1]: 5 (excellent 81 to 100) | S Lindernia dubia subsp. major Pennell (effect index) [2]: 5 (excellent 81 to 100) | R Lindernia dubia subsp. major Pennell (effect index) [3]: 5 (excellent 81 to 100) | R Lindernia procumbens (Krock.) Philcox (effect index) [4]: 5 (excellent 81 to 100) | S Scirpus juncoides var. ohwianus (effect index) [5]: 5 (excellent 81 to 100) | S Lindernia procumbens (Krock.) Philcox (effect index) [6]: 5 (excellent 81 to 100) | melting point: 163 to 165 °C

COc1cc(OC)nc(S(=O)(=O)NC(=O)Nc2c(C)nc3ccc(SC)nn23)n1 [Compound No. 19]
R Scirpus juncoides var. ohwianus (effect index) [1]: 5 (excellent 81 to 100) | S Lindernia dubia subsp. major Pennell (effect index) [2]: 5 (excellent 81 to 100) | R Lindernia dubia subsp. major Pennell (effect index) [3]: 4 (high 61 to 80) | R Lindernia procumbens (Krock.) Philcox (effect index) [4]: 5 (excellent 81 to 100) | S Scirpus juncoides var. ohwianus (effect index) [5]: 5 (excellent 81 to 100) | S Lindernia procumbens (Krock.) Philcox (effect index) [6]: 5 (excellent 81 to 100) | melting point: 178 to 180 °C (dec.)

CCc1nc2ccc(SC)nn2c1NC(=O)NS(=O)(=O)c1nc(OC)cc(OC)n1 [Compound No. 8]
R Scirpus juncoides var. ohwianus (effect index) [1]: 5 (excellent 81 to 100) | S Lindernia dubia subsp. major Pennell (effect index) [2]: 5 (excellent 81 to 100) | R Lindernia dubia subsp. major Pennell (effect index) [3]: 5 (excellent 81 to 100) | R Lindernia procumbens (Krock.) Philcox (effect index) [4]: 5 (excellent 81 to 100) | S Scirpus juncoides var. ohwianus (effect index) [5]: 5 (excellent 81 to 100) | S Lindernia procumbens (Krock.) Philcox (effect index) [6]: 5 (excellent 81 to 100) | melting point: 146 to 148 °C

CCc1ccc2nc(C)c(S(=O)(=O)NC(=O)Nc3nc(OC)cc(OC)n3)n2n1 [Compound No. 13, 1-(4,6-dimethoxypyrimidin-2-yl)-3-(6-ethyl-2-methylimidazo[1,2-b]pyridazin-3-ylsulfonyl)urea]
R Scirpus juncoides var. ohwianus (effect index) [1]: 5 (excellent 81 to 100) | S Lindernia dubia subsp. major Pennell (effect index) [2]: 5 (excellent 81 to 100) | R Lindernia dubia subsp. major Pennell (effect index) [3]: 5 (excellent 81 to 100) | R Lindernia procumbens (Krock.) Philcox (effect index) [4]: 5 (excellent 81 to 100) | S Scirpus juncoides var. ohwianus (effect index) [5]: 5 (excellent 81 to 100) | S Lindernia procumbens (Krock.) Philcox (effect index) [6]: 5 (excellent 81 to 100) | melting point: 172 to 174 °C

CCc1ccc2nc(Cl)c(NC(=O)NS(=O)(=O)c3nc(OC)cc(OC)n3)n2n1 [Compound No. 37]
R Scirpus juncoides var. ohwianus (effect index) [1]: 5 (excellent 81 to 100) | S Lindernia dubia subsp. major Pennell (effect index) [2]: 5 (excellent 81 to 100) | R Lindernia dubia subsp. major Pennell (effect index) [3]: 5 (excellent 81 to 100) | R Lindernia procumbens (Krock.) Philcox (effect index) [4]: 5 (excellent 81 to 100) | S Scirpus juncoides var. ohwianus (effect index) [5]: 5 (excellent 81 to 100) | S Lindernia procumbens (Krock.) Philcox (effect index) [6]: 5 (excellent 81 to 100) | melting point: 162 to 166 °C

CCCc1ccc2nc(C)c(S(=O)(=O)NC(=O)Nc3nc(OC)cc(OC)n3)n2n1 [Compound No. 36]
R Scirpus juncoides var. ohwianus (effect index) [1]: 5 (excellent 81 to 100) | S Lindernia dubia subsp. major Pennell (effect index) [2]: 5 (excellent 81 to 100) | R Lindernia dubia subsp. major Pennell (effect index) [3]: 5 (excellent 81 to 100) | R Lindernia procumbens (Krock.) Philcox (effect index) [4]: 5 (excellent 81 to 100) | S Scirpus juncoides var. ohwianus (effect index) [5]: 5 (excellent 81 to 100) | S Lindernia procumbens (Krock.) Philcox (effect index) [6]: 5 (excellent 81 to 100)

COc1cc(OC)nc(NC(=O)NS(=O)(=O)c2c(C)nc3cccnn23)n1 [comparison 1, reference compound]
R Scirpus juncoides var. ohwianus (effect index) [1]: 2 (slight 21 to 40) | S Lindernia dubia subsp. major Pennell (effect index) [2]: 5 (excellent 81 to 100) | R Lindernia dubia subsp. major Pennell (effect index) [3]: 1 (very slight 1 to 20) | R Lindernia procumbens (Krock.) Philcox (effect index) [4]: 0 (none 0) | S Scirpus juncoides var. ohwianus (effect index) [5]: 5 (excellent 81 to 100) | S Lindernia procumbens (Krock.) Philcox (effect index) [6]: 5 (excellent 81 to 100)

COc1cc(OC)nc(S(=O)(=O)NC(=O)Nc2c(C)nc3ccc(N(C)C)nn23)n1 [Compound No. 14]
R Scirpus juncoides var. ohwianus (effect index) [1]: 5 (excellent 81 to 100) | S Lindernia dubia subsp. major Pennell (effect index) [2]: 5 (excellent 81 to 100) | R Lindernia dubia subsp. major Pennell (effect index) [3]: 4 (high 61 to 80) | R Lindernia procumbens (Krock.) Philcox (effect index) [4]: 3 (moderate 41 to 60) | S Scirpus juncoides var. ohwianus (effect index) [5]: 5 (excellent 81 to 100) | S Lindernia procumbens (Krock.) Philcox (effect index) [6]: 5 (excellent 81 to 100) | melting point: 183 to 185 °C (dec.)

COc1cc(OC)nc(S(=O)(=O)NC(=O)Nc2c(C(F)(F)F)nc3ccc(SC)nn23)n1 [Compound No. 12]
R Scirpus juncoides var. ohwianus (effect index) [1]: 5 (excellent 81 to 100) | S Lindernia dubia subsp. major Pennell (effect index) [2]: 5 (excellent 81 to 100) | R Lindernia dubia subsp. major Pennell (effect index) [3]: 5 (excellent 81 to 100) | R Lindernia procumbens (Krock.) Philcox (effect index) [4]: 3 (moderate 41 to 60) | S Scirpus juncoides var. ohwianus (effect index) [5]: 5 (excellent 81 to 100) | S Lindernia procumbens (Krock.) Philcox (effect index) [6]: 5 (excellent 81 to 100) | melting point: 266 to 267 °C

CCNc1ccc2nc(Cl)c(NC(=O)NS(=O)(=O)c3nc(OC)cc(OC)n3)n2n1 [Compound No. 3]
R Scirpus juncoides var. ohwianus (effect index) [1]: 5 (excellent 81 to 100) | S Lindernia dubia subsp. major Pennell (effect index) [2]: 5 (excellent 81 to 100) | R Lindernia dubia subsp. major Pennell (effect index) [3]: 5 (excellent 81 to 100) | R Lindernia procumbens (Krock.) Philcox (effect index) [4]: 5 (excellent 81 to 100) | S Scirpus juncoides var. ohwianus (effect index) [5]: 5 (excellent 81 to 100) | S Lindernia procumbens (Krock.) Philcox (effect index) [6]: 5 (excellent 81 to 100) | melting point: 169 to 171 °C

CCc1nc2ccc(S(C)(=O)=O)nn2c1NC(=O)NS(=O)(=O)c1nc(OC)cc(OC)n1 [Compound No. 9]
R Scirpus juncoides var. ohwianus (effect index) [1]: 5 (excellent 81 to 100) | S Lindernia dubia subsp. major Pennell (effect index) [2]: 5 (excellent 81 to 100) | R Lindernia dubia subsp. major Pennell (effect index) [3]: 5 (excellent 81 to 100) | R Lindernia procumbens (Krock.) Philcox (effect index) [4]: 3 (moderate 41 to 60) | S Scirpus juncoides var. ohwianus (effect index) [5]: 5 (excellent 81 to 100) | S Lindernia procumbens (Krock.) Philcox (effect index) [6]: 5 (excellent 81 to 100) | melting point: 206 to 208 °C

CCCc1ccc2nc(Cl)c(S(=O)(=O)NC(=O)Nc3nc(OC)cc(OC)n3)n2n1 [Compound No. 38, 1-(2-chloro-6-n-propylimidazo[1,2-b]pyridazin-3-ylsulfonyl)-3-(4,6-dimethoxypyrimidin-2-yl)urea]
R Scirpus juncoides var. ohwianus (effect index) [1]: 5 (excellent 81 to 100) | S Lindernia dubia subsp. major Pennell (effect index) [2]: 5 (excellent 81 to 100) | R Lindernia dubia subsp. major Pennell (effect index) [3]: 5 (excellent 81 to 100) | R Lindernia procumbens (Krock.) Philcox (effect index) [4]: 5 (excellent 81 to 100) | S Scirpus juncoides var. ohwianus (effect index) [5]: 5 (excellent 81 to 100) | S Lindernia procumbens (Krock.) Philcox (effect index) [6]: 5 (excellent 81 to 100)
